Assay results as given in PubChem BioAssay (NCI).
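Values below derive from 48-hour exposures of cells grown in 96-well plates, with endpoints linearly interpolated between the two concentrations bracketing the appropriate inhibition level. GI50: concentration for 50% inhibition of growth. TGI marks complete inhibition of growth.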

Tests used:
Test in all cases: NCI-60 cell line screen, 48 h
HCT-116 colon = system: HCT-116 colon
SF-295 CNS = system: SF-295 CNS
COLO 205 colon = system: COLO 205 colon
SK-MEL-28 melanoma = system: SK-MEL-28 melanoma
HT29 colon = system: HT29 colon
NCI-H226 lung = system: NCI-H226 lung
UO-31 renal = system: UO-31 renal
MDA-MB-435 = system: MDA-MB-435
BT-549 breast = system: BT-549 breast
SK-MEL-2 melanoma = system: SK-MEL-2 melanoma

SMILES: COC(=O)C1=C(C)NC(C)=C(C(=O)OC)C1/C=C(\Cl)c1ccc(Cl)c(Cl)c1
- GI50 (HCT-116 colon): 12.2 µM
- TGI (HCT-116 colon): 24.6 µM
- GI50 (SF-295 CNS): 6.26 µM
- TGI (SF-295 CNS): 21.6 µM
- GI50 (COLO 205 colon): 17.9 µM
- TGI (COLO 205 colon): 43.2 µM
- GI50 (SK-MEL-28 melanoma): 13.2 µM
- TGI (SK-MEL-28 melanoma): 27.7 µM
- GI50 (HT29 colon): 4.51 µM
- TGI (HT29 colon): 18.5 µM
- GI50 (NCI-H226 lung): 15.8 µM
- TGI (NCI-H226 lung): 38.2 µM
- GI50 (UO-31 renal): 13.9 µM
- TGI (UO-31 renal): 27.1 µM
- GI50 (MDA-MB-435): 15.1 µM
- TGI (MDA-MB-435): 32.1 µM
- GI50 (BT-549 breast): 16.6 µM
- TGI (BT-549 breast): 32.2 µM

SMILES: CCN(CC)CCCn1cnc2ncccc2c1=O
- TGI (HCT-116 colon): > 100 µM
- TGI (SF-295 CNS): > 100 µM
- TGI (COLO 205 colon): > 100 µM
- TGI (SK-MEL-28 melanoma): > 100 µM
- TGI (HT29 colon): > 100 µM
- TGI (NCI-H226 lung): > 100 µM
- TGI (UO-31 renal): > 100 µM
- TGI (SK-MEL-2 melanoma): > 100 µM

SMILES: O=C(Nc1ccccc1)c1nn(-c2cc(S(=O)(=O)O)c([N+](=O)[O-])cc2Cl)[n+](-c2cc(S(=O)(=O)[O-])c([N+](=O)[O-])cc2Cl)n1
- TGI (HCT-116 colon): > 100 µM
- TGI (SF-295 CNS): > 100 µM
- TGI (COLO 205 colon): > 100 µM
- TGI (SK-MEL-28 melanoma): > 100 µM
- TGI (HT29 colon): > 100 µM
- TGI (NCI-H226 lung): > 100 µM
- TGI (UO-31 renal): > 100 µM
- TGI (MDA-MB-435): > 100 µM
- TGI (SK-MEL-2 melanoma): > 100 µM

SMILES: C#CCN(Cc1nc2cc(C(F)(F)F)ccc2nc1-c1ccccc1)c1ccc(OC(F)(F)F)cc1
- GI50 (HCT-116 colon): 25 µM
- TGI (HCT-116 colon): > 100 µM
- GI50 (SF-295 CNS): > 100 µM
- TGI (SF-295 CNS): > 100 µM
- GI50 (COLO 205 colon): 45.4 µM
- TGI (COLO 205 colon): > 100 µM
- GI50 (SK-MEL-28 melanoma): > 100 µM
- TGI (SK-MEL-28 melanoma): > 100 µM
- GI50 (HT29 colon): 40.3 µM
- TGI (HT29 colon): > 100 µM
- GI50 (UO-31 renal): 50.7 µM
- TGI (UO-31 renal): > 100 µM
- GI50 (MDA-MB-435): 39.4 µM
- TGI (MDA-MB-435): > 100 µM
- GI50 (BT-549 breast): 44.9 µM
- TGI (BT-549 breast): > 100 µM
- GI50 (SK-MEL-2 melanoma): > 100 µM
- TGI (SK-MEL-2 melanoma): > 100 µM

SMILES: Cc1oc2c(C)c3oc(=O)cc(C)c3cc2c1CNC(=O)[C@@H]1OCCOCCOCCOCCOCCOC1C(=O)O (stereo not given in full)
- TGI (HCT-116 colon): > 100 µM
- TGI (SF-295 CNS): > 100 µM
- TGI (COLO 205 colon): > 100 µM
- TGI (HT29 colon): > 100 µM
- TGI (NCI-H226 lung): > 100 µM
- TGI (UO-31 renal): > 100 µM

SMILES: Clc1cc2c(cc1Cl)Oc1cc(Cl)c(Cl)cc1O2
- GI50 (HCT-116 colon): > 0.625 µM
- TGI (HCT-116 colon): > 0.625 µM
- GI50 (COLO 205 colon): > 0.625 µM
- TGI (COLO 205 colon): > 0.625 µM
- GI50 (SK-MEL-28 melanoma): > 0.625 µM
- TGI (SK-MEL-28 melanoma): > 0.625 µM
- GI50 (HT29 colon): > 0.625 µM
- TGI (HT29 colon): > 0.625 µM
- GI50 (NCI-H226 lung): > 0.625 µM
- TGI (NCI-H226 lung): > 0.625 µM
- GI50 (UO-31 renal): 0.209 µM
- TGI (UO-31 renal): > 0.625 µM
- GI50 (MDA-MB-435): > 0.625 µM
- TGI (MDA-MB-435): > 0.625 µM
- GI50 (BT-549 breast): > 0.625 µM
- TGI (BT-549 breast): > 0.625 µM
- GI50 (SK-MEL-2 melanoma): > 0.625 µM
- TGI (SK-MEL-2 melanoma): > 0.625 µM

SMILES: C=C(C)C1Cc2c(cc(OC)c3c(=O)c4cccc(O)c4oc23)O1 (stereo not given)
- TGI (HCT-116 colon): 39.4 µM
- TGI (SF-295 CNS): 41.6 µM
- TGI (COLO 205 colon): > 100 µM
- TGI (SK-MEL-28 melanoma): 72 µM
- TGI (HT29 colon): > 100 µM
- TGI (NCI-H226 lung): 44 µM
- TGI (UO-31 renal): 39 µM
- TGI (BT-549 breast): 34.8 µM
- TGI (SK-MEL-2 melanoma): 42.4 µM

SMILES: O=C(Nc1ccc(F)cc1)Nc1ccccc1CNc1nc(Nc2ccc(OCCN3CCCC3)cc2)ncc1Cl
- GI50 (SF-295 CNS): 1.97 µM
- TGI (SF-295 CNS): 7.67 µM
- GI50 (SK-MEL-28 melanoma): 0.899 µM
- TGI (SK-MEL-28 melanoma): 1.78 µM
- GI50 (HT29 colon): 1.49 µM
- TGI (HT29 colon): 50 µM
- GI50 (UO-31 renal): 0.742 µM
- TGI (UO-31 renal): 1.49 µM
- GI50 (MDA-MB-435): 1.03 µM
- TGI (MDA-MB-435): 2.28 µM
- GI50 (BT-549 breast): 5.15 µM
- TGI (BT-549 breast): 11.2 µM
- GI50 (SK-MEL-2 melanoma): 8.7 µM
- TGI (SK-MEL-2 melanoma): 18.4 µM
